Measurements from US20050197350A1, “Novel quinoline, tetrahydroquinazoline, and pyrimidine derivatives and methods of treatment related to the use thereof” (TAISHO PHARMACEUTICAL CO., LTD., priority 2003, published 2005).
Counter-ions that a name gives are not always drawn.

target: MCH receptor (Homo sapiens, UniProt Q99705); experiment: High throughput functional screening FLIPR/FDSS6000 (intracellular Ca2+ evoked by MCH); format: cell-based; conditions: FLIPR/FDSS, antagonist activity vs 50 nM MCH; class by percent of control at 10^−7 M or IC50; table after the classification; read-out: class
Text: High Throughput Functional Screening: FLIPR™
This assay utilized a non-endogenous, constitutively active version of the MCH receptor.
The concentration of free Ca^2+ in the cytosol of any cell is extremely low, whereas its concentration in the extracellular fluid and endoplasmic reticulum (ER) is very high. Thus, there is a large gradient tending to drive Ca^2+ into the cytosol across both the plasma membrane and ER. The FLIPR™ and FDSS6000™ systems (Molecular Devices Corporation, […] Photonics K.K.) are designed to perform functional cell-based assays, such as the measurement of intracellular calcium for high-throughput screening. The measurement of fluorescent is associated with calcium release upon activation of the Gq-coupled receptors.
Fluorometric Imaging Plate Reader system was used to allow for rapid, kinetic measurements of intracellular fluorescence in 96 well microplates (or 384 well microplates). Simultaneous measurements of fluorescence in all wells can be made by FLIPR or FDSS6000™ every second with high sensitivity and precision. These systems are ideal for measuring cell-based functional assays such as monitoring the intracellular calcium fluxes that occur within seconds after activation of the Gq coupled receptor.
Briefly, the cells are seeded into 96 well at 5.5×10^4 cells/well with complete culture media (Dulbecco's Modified Eagle Medium with 10% fetal bovine serum, 2 mM L-glutamine, 1 mM sodium pyruvate and 0.5 mg/ml G418, pH 7.4) for the assay next day. On the day of assay, the media is removed and the cells are incubated with 100 μl of loading buffer (4 μM Fluo4-AM in complete culture media containing 2.5 mM Probenicid, 0.5 mg/ml and 0.2% bovine serum albumin) in 5% CO2 incubator at 37° C. for 1 hr. The loading buffer is removed, and the cells are washed with wash buffer (Hank's Balanced Salt Solution containing 2.5 mM Probenicid, 20 mM HEPES, 0.5 mg/ml and 0.2% bovine serum albumin, pH 7.4)). One hundred fifty μl of wash buffer containing various concentrations of test compound is added to the cells, and the cells are incubated in 5% CO2 incubator at 37° C. for 30 min. […] 530 nm for 290 second. When antagonist activity of compound is tested, 50 nM of MCH is used.
Use of FLIPR™ and FDSS6000™ can be accomplished by following manufacturer's instruction (Molecular Device Corporation and […] Photonics K.K.).

**Q.** How did the IC50 turn out when `Cc1ccc(Oc2ncccc2C(=O)N[C@H]2CC[C@@H](Nc3ccc4ccccc4n3)CC2)cc1` [Example 3056, N-[cis-4-(Quinolin-2-ylamino)-cyclohexyl]-2-p-tolyloxy-nicotinamide hydrochloride] was run?
**A.** < 50 nM

**Q.** How did the IC50 turn out when `O=C(N[C@H]1CC[C@@H](Nc2ccc3ccccc3n2)CC1)c1cccnc1Oc1ccc(Cl)cc1` [Example 3057, 2-(4-Chloro-phenoxy)-N-[cis-4-(quinolin-2-ylamino)-cyclohexyl]-nicotinamide hydrochloride] was run?
**A.** < 50 nM

**Q.** How did the IC50 turn out when `O=C(N[C@H]1CC[C@@H](Nc2ccc3ccccc3n2)CC1)c1cccnc1Oc1ccc(Br)cc1` [Example 3058, 2-(4-Bromo-phenoxy)-N-[cis-4-(quinolin-2-ylamino)-cyclohexyl]-nicotinamide hydrochloride] was run?
**A.** < 50 nM

**Q.** How did the IC50 turn out when `COc1ccc(Oc2ncccc2C(=O)N[C@H]2CC[C@@H](Nc3ccc4ccccc4n3)CC2)cc1` [Example 3059, 2-(4-Methoxy-phenoxy)-N-[cis-4-(quinolin-2-ylamino)-cyclohexyl]-nicotinamide hydrochloride] was run?
**A.** < 50 nM

**Q.** `O=C(N[C@H]1CC[C@@H](Nc2ccc3ccccc3n2)CC1)c1cccnc1Oc1ccc(F)c(Cl)c1` [Example 3060, 2-(3-Chloro-4-fluoro-phenoxy)-N-[cis-4-(quinolin-2-ylamino)-cyclohexyl]-nicotinamide hydrochloride] was tested. Which IC50 did it give?
**A.** 50 to 200 nM

**Q.** With `Cc1cccc(Oc2ncccc2C(=O)N[C@H]2CC[C@@H](Nc3ccc4ccccc4n3)CC2)c1` [Example 3061, N-[cis-4-(Quinolin-2-ylamino)-cyclohexyl]-2-m-tolyloxy-nicotinamide hydrochloride] as the molecule, how does the IC50 read?
**A.** < 50 nM

**Q.** With `COc1cccc(OCC(=O)N[C@H]2CC[C@@H](Nc3ccc4ccccc4n3)CC2)c1` [Example 3062, 2-(3-Methoxy-phenoxy)-N-[cis-4-(quinolin-2-ylamino)-cyclohexyl]-acetamide hydrochloride] as the molecule, how does the IC50 read?
**A.** < 50 nM

**Q.** For `O=C(COc1cccc(Cl)c1)N[C@H]1CC[C@@H](Nc2ccc3ccccc3n2)CC1` [Example 3063, 2-(3-Chloro-phenoxy)-N-[cis-4-(quinolin-2-ylamino)-cyclohexyl]-acetamide hydrochloride], which IC50 is on record?
**A.** < 50 nM

**Q.** How did the IC50 turn out when `O=C(COc1ccc(F)c(Cl)c1)N[C@H]1CC[C@@H](Nc2ccc3ccccc3n2)CC1` [Example 3064, 2-(3-Chloro-4-fluoro-phenoxy)-N-[cis-4-(quinolin-2-ylamino)-cyclohexyl]-acetamide hydrochloride] was run?
**A.** < 50 nM

**Q.** Which IC50 does the source give for `O=C(COc1ccc(Cl)c(Cl)c1)N[C@H]1CC[C@@H](Nc2ccc3ccccc3n2)CC1` [Example 3065, 2-(3,4-Dichloro-phenoxy)-N-[cis-4-(quinolin-2-ylamino)-cyclohexyl]-acetamide hydrochloride] here?
**A.** < 50 nM

**Q.** How did the IC50 turn out when `CN(CC(=O)N[C@H]1CC[C@@H](Nc2ccc3ccccc3n2)CC1)c1ccccc1` [Example 3066, C-(Methyl-phenyl-amino)-N-[cis-4-(quinolin-2-ylamino)-cyclohexyl]-acetamide dihydrochloride] was run?
**A.** < 50 nM

**Q.** With `O=C(CNc1ccc(Cl)c(Cl)c1)N[C@H]1CC[C@@H](Nc2ccc3ccccc3n2)CC1` [Example 3067, 2-(3,4-Dichloro-phenylamino)-N-[cis-4-(quinolin-2-ylamino)-cyclohexyl]-acetamide dihydrochloride] as the molecule, how does the IC50 read?
**A.** 50 to 200 nM

**Q.** Which IC50 does the source give for `O=C(NC[C@H]1CC[C@@H](Nc2ccc3ccccc3n2)CC1)c1ccc(F)c(F)c1` [Example 3068, 3,4-Difluoro-N-[cis-4-(quinolin-2-ylamino)-cyclohexylmethyl]-benzamide hydrochloride] here?
**A.** 50 to 200 nM

**Q.** For `O=C(NC[C@H]1CC[C@@H](Nc2ccc3ccccc3n2)CC1)c1cccnc1Oc1ccccc1` [Example 3069, 2-Phenoxy-N-[cis-4-(quinolin-2-ylamino)-cyclohexylmethyl]-nicotinamide hydrochloride], which IC50 is on record?
**A.** 50 to 200 nM

**Q.** How did the IC50 turn out when `Cc1cc(N[C@H]2CC[C@@H](NC(=O)c3cccnc3Oc3ccccc3)CC2)nc2ccccc12` [Example 3070, N-[cis-4-(4-Methylquinolin-2-ylamino)-cyclohexyl]-2-phenoxy-nicotinamide hydrochloride] was run?
**A.** < 50 nM

**Q.** `Cc1cc(N[C@H]2CC[C@@H](NC(=O)Nc3cccc(Cl)c3Cl)CC2)nc2ccccc12` [Example 3072, 1-(2,3-Dichloro-phenyl)-3-[cis-4-(4-methyl-quinolin-2-ylamino)-cyclohexyl]-urea hydrochloride] was tested. Which IC50 did it give?
**A.** < 50 nM

**Q.** How did the IC50 turn out when `Cc1cc(N[C@H]2CC[C@@H](NC(=O)c3cccc(Cl)c3)CC2)nc2ccccc12` [Example 3073, 3-Chloro-N-[cis-4-(4-methyl-quinolin-2-ylamino)-cyclohexyl]-benzamide hydrochloride] was run?
**A.** < 50 nM

**Q.** `Cc1cc(N[C@H]2CC[C@@H](NC(=O)c3csc([N+](=O)[O-])c3)CC2)nc2ccccc12` [Example 3074, 5-Nitro-thiophene-3-carboxylic acid [cis-4-(4-methyl-quinolin-2-ylamino)-cyclohexyl]-amide hydrochloride] was tested. Which IC50 did it give?
**A.** < 50 nM

**Q.** How did the IC50 turn out when `Cc1cccc(C(=O)N[C@H]2CC[C@@H](Nc3cc(C)c4ccccc4n3)CC2)c1` [Example 3075, 3-Methyl-N-[cis-4-(4-methyl-quinolin-2-ylamino)-cyclohexyl]-benzamide hydrochloride] was run?
**A.** < 50 nM

**Q.** For `COc1cccc(C(=O)N[C@H]2CC[C@@H](Nc3cc(C)c4ccccc4n3)CC2)c1` [Example 3076, 3-Methoxy-N-[cis-4-(4-methyl-quinolin-2-ylamino)-cyclohexyl]-benzamide hydrochloride], which IC50 is on record?
**A.** < 50 nM

**Q.** For `Cc1cc(N[C@H]2CC[C@@H](NC(=O)c3ccc(C#N)cc3)CC2)nc2ccccc12` [Example 3077, 4-Cyano-N-[cis-4-(4-methyl-quinolin-2-ylamino)-cyclohexyl]-benzamide hydrochloride], which IC50 is on record?
**A.** < 50 nM

**Q.** `Cc1cc(N[C@H]2CC[C@@H](NC(=O)c3ccc(Cl)c(Cl)c3)CC2)nc2ccccc12` [Example 3078, 3,4-Dichloro-N-[cis-4-(4-methyl-quinolin-2-ylamino)-cyclohexyl]-benzamide hydrochloride] was tested. Which IC50 did it give?
**A.** < 50 nM

**Q.** For `Cc1cc(C(=O)N[C@H]2CC[C@@H](Nc3cc(C)c4ccccc4n3)CC2)ccc1F` [Example 3080, 4-Fluoro-3-methyl-N-[cis-4-(4-methyl-quinolin-2-ylamino)-cyclohexyl]-benzamide hydrochloride], which IC50 is on record?
**A.** < 50 nM

**Q.** `Cc1cc(N[C@H]2CC[C@@H](NC(=O)c3cc([N+](=O)[O-])cn3C)CC2)nc2ccccc12` [Example 3081, 1-Methyl-4-nitro-1H-pyrrole-2-carboxylic acid-[cis-4-(4-methyl-quinolin-2-ylamino)-cyclohexyl]-amide hydrochloride] was tested. Which IC50 did it give?
**A.** < 50 nM

**Q.** `Cc1cc(N[C@H]2CC[C@@H](NC(=O)C3c4ccccc4Oc4ccccc43)CC2)nc2ccccc12` [Example 3082, 9H-Xanthene-9-carboxylic acid-[cis-4-(4-methyl-quinolin-2-ylamino)-cyclohexyl]-amide hydrochloride] was tested. Which IC50 did it give?
**A.** < 50 nM

**Q.** With `Cc1cc(N[C@H]2CC[C@@H](NC(=O)c3ccc(Br)o3)CC2)nc2ccccc12` [Example 3083, 5-Bromo-furan-2-carboxylic acid-[cis-4-(4-methyl-quinolin-2-ylamino)-cyclohexyl]-amide hydrochloride] as the molecule, how does the IC50 read?
**A.** < 50 nM

**Q.** Which IC50 does the source give for `Cc1cccc(OCC(=O)N[C@H]2CC[C@@H](Nc3cc(C)c4ccccc4n3)CC2)c1` [Example 3084, N-[cis-4-(4-Methyl-quinolin-2-ylamino)-cyclohexyl]-2-m-tolyloxy-acetamide hydrochloride] here?
**A.** < 50 nM
